For 22 molecules, IC50 results are on record in patent US20260374756A1, “HETEROCYCLIC COMPOUNDS AS INHIBITORS OF MONOACYLGLYCEROL LIPASE (MAGL)” (Hoffmann-La Roche Inc., priority 2022, published 2026).

The target of the assay is T1, hMAGL (Homo sapiens, UniProt Q99685).
T1 sequence (Q99685 1-303): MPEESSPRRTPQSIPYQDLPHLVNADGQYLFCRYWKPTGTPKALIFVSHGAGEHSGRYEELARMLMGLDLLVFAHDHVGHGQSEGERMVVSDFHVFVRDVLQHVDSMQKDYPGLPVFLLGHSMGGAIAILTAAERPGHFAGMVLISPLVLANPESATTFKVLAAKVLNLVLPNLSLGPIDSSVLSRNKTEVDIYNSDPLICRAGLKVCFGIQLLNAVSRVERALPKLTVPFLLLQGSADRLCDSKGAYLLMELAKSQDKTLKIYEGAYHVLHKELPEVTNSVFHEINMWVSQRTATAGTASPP
The assay is described as follows: 2-AG assay: MAGL inhibition, hydrolysis of 2-arachidonoylglycerol to arachidonic acid followed by mass spectrometry. It is filed as biochemical. The method, then: Compounds of formula (I) were profiled for MAGL inhibitory activity by determining the enzymatic activity by following the hydrolysis of the natural substrate 2-arachidonoylglycerol (2-AG) resulting in arachidonic acid, which can be followed by mass spectrometry. This assay is hereinafter abbreviated “2-AG assay”. The 2-AG assay was carried out in 384 well polypropylene assay plates. […] Compound dilutions were added to MAGL protein in assay buffer (50 mM TRIS, 1 mM EDTA, 0.01% (v/v) Tween-20, 2.5% (v/v) DMSO). After shaking, the plate was incubated for 15 min at RT. To start the reaction, 2-arachidonoylglycerol in assay buffer was added. The final concentrations in the assay was […] for MAGL protein and 8 μM 2-arachidonoylglyerol. After shaking and 30 min incubation at RT, the reaction was quenched by the addition of two assay volumes of acetonitrile containing 4 μM of d8-arachidonic acid. The amount of arachidonic acid formed was traced by an online SPE system (Agilent Rapidfire) coupled to a triple quadrupole mass spectrometer. A C18 SPE cartridge (Agilent G9205A) was used in an acetonitrile/water liquid setup. […] The activity of the compounds was calculated based on the ratio of intensities [arachidonic acid/d8-arachidonic acid].

Molecules are shown by their SMILES. pIC50: −log10 of the molar value.

By pIC50 is commonly meant the negative decadic logarithm of the IC50, by convention in mol/L. The low end stands for a large IC50, the high end for a small IC50. Take `Cn1ncc(C(F)(F)F)c1CN1CCC2(CC1)CN(C(=O)N1CC3(CC(n4cnc(C5(O)CC5)n4)C3)C1)C2` [Example 67, [6-[3-(1-hydroxycyclopropyl)-1,2,4-triazol-1-yl]-2-azaspiro[3.3]heptan-2-yl]-[7-[[2-methyl-4-(trifluoromethyl)pyrazol-3-yl]methyl]-2,7-diazaspiro[3.5]nonan-2-yl]methanone]: the pIC50 was 8.67.

In the case of `CC(F)(F)c1noc(CN2CC3(C2)CN(C(=O)N2CC4(CC(n5cnc(C6CC6)n5)C4)C2)C3)n1` [Example 259, [6-(3-cyclopropyl-1,2,4-triazol-1-yl)-2-azaspiro[3.3]heptan-2-yl]-[6-[[3-(1,1-difluoroethyl)-1,2,4-oxadiazol-5-yl]methyl]-2,6-diazaspiro[3.3]heptan-2-yl]methanone], the pIC50 is 8.05.

`O=C(N1CC2(CC(Cn3ccc(C4CC4)n3)C2)C1)N1CC2(CC(n3cnc(C4CC4)n3)C2)C1` [Example 143, [6-[(3-cyclopropylpyrazol-1-yl)methyl]-2-azaspiro[3.3]heptan-2-yl]-[6-(3-cyclopropyl-1,2,4-triazol-1-yl)-2-azaspiro[3.3]heptan-2-yl]methanone]: the pIC50 is 9.42.

`Cc1nn(CC(F)(F)F)cc1CN1CC2(C1)CN(C(=O)N1CC3(CC(n4cnc(C5(O)CC5)n4)C3)C1)C2` [Example 111, [6-[3-(1-hydroxycyclopropyl)-1,2,4-triazol-1-yl]-2-azaspiro[3.3]heptan-2-yl]-[6-[[3-methyl-1-(2,2,2-trifluoroethyl)pyrazol-4-yl]methyl]-2,6-diazaspiro[3.3]heptan-2-yl]methanone] had a pIC50 of 5.41.

`Cc1cc(C(F)F)n(CC2CC3(C2)CN(C(=O)N2CC4(CC(n5cnc(C6(O)CC6)n5)C4)C2)C3)n1` [Example 93, [6-[[5-(difluoromethyl)-3-methyl-pyrazol-1-yl]methyl]-2-azaspiro[3.3]heptan-2-yl]-[6-[3-(1-hydroxycyclopropyl)-1,2,4-triazol-1-yl]-2-azaspiro[3.3]heptan-2-yl]methanone] gave a pIC50 of 8.26.

For the molecule `Cn1cnc(C#N)c1CN1CC2(C1)CN(C(=O)N1CC3(CC(n4cnc(C5(O)CC5)n4)C3)C1)C2` [Example 282, 5-[[2-[6-[3-(1-hydroxycyclopropyl)-1,2,4-triazol-1-yl]-2-azaspiro[3.3]heptane-2-carbonyl]-2,6-diazaspiro[3.3]heptan-6-yl]methyl]-1-methyl-imidazole-4-carbonitrile], the pIC50 was 5.43.

The molecule `O=C(N1CC2(CC(n3cnc(C4CC4)n3)C2)C1)N1CC2(CN(Cc3nnn(CC(F)(F)F)n3)C2)C1` [Example 194, [6-(3-cyclopropyl-1,2,4-triazol-1-yl)-2-azaspiro[3.3]heptan-2-yl]-[6-[[2-(2,2,2-trifluoroethyl)tetrazol-5-yl]methyl]-2,6-diazaspiro[3.3]heptan-2-yl]methanone] had a pIC50 of 6.83.

`Cn1ccnc1CN1CC2(C1)CN(C(=O)N1CC3(CC(n4cnc(C5CC5)n4)C3)C1)C2` [Example 308, [6-(3-cyclopropyl-1,2,4-triazol-1-yl)-2-azaspiro[3.3]heptan-2-yl]-[6-[(1-methylimidazol-2-yl)methyl]-2,6-diazaspiro[3.3]heptan-2-yl]methanone] had a negative-log IC50 (pIC50) of 6.96.

`CC(C)(C)c1ncc(CN2CC3(C2)CN(C(=O)N2CC4(CC(n5cnc(C6(O)CC6)n5)C4)C2)C3)s1` [Example 58, [6-[(2-tert-butylthiazol-5-yl)methyl]-2,6-diazaspiro[3.3]heptan-2-yl]-[6-[3-(1-hydroxycyclopropyl)-1,2,4-triazol-1-yl]-2-azaspiro[3.3]heptan-2-yl]methanone] showed a pIC50 of 8.09.

Take `O=C(N1CC2(CC(Cc3nc(CC(F)(F)F)n[nH]3)C2)C1)N1CC2(CC(n3cnc(C4(O)CC4)n3)C2)C1` [Example 205, [6-[3-(1-hydroxycyclopropyl)-1,2,4-triazol-1-yl]-2-azaspiro[3.3]heptan-2-yl]-[6-[[3-(2,2,2-trifluoroethyl)-1H-1,2,4-triazol-5-yl]methyl]-2-azaspiro[3.3]heptan-2-yl]methanone]: the negative-log IC50 (pIC50) is 7.14.

As to `O=C(N1CC2(CC(Cc3cn(CC(F)(F)F)nn3)C2)C1)N1CC2(CC(n3cnc(C4CC4)n3)C2)C1` [Example 347, [6-(3-cyclopropyl-1,2,4-triazol-1-yl)-2-azaspiro[3.3]heptan-2-yl]-[6-[[1-(2,2,2-trifluoroethyl)triazol-4-yl]methyl]-2-azaspiro[3.3]heptan-2-yl]methanone], the pIC50 is 8.75.

Molecule `O=C(N1CC2(CC(Cc3ncn(CC(F)(F)F)n3)C2)C1)N1CC2(CC(n3cnc(C4CC4)n3)C2)C1` [Example 339, [6-(3-cyclopropyl-1,2,4-triazol-1-yl)-2-azaspiro[3.3]heptan-2-yl]-[6-[[1-(2,2,2-trifluoroethyl)-1,2,4-triazol-3-yl]methyl]-2-azaspiro[3.3]heptan-2-yl]methanone] showed a pIC50 of 8.43.

The molecule `Cc1sc(CN2CC3(C2)CN(C(=O)N2CC4(CC(n5cnc(C6CC6)n5)C4)C2)C3)nc1C(F)(F)F` [Example 55, [6-(3-cyclopropyl-1,2,4-triazol-1-yl)-2-azaspiro[3.3]heptan-2-yl]-[6-[[5-methyl-4-(trifluoromethyl)thiazol-2-yl]methyl]-2,6-diazaspiro[3.3]heptan-2-yl]methanone] showed a pIC50 of 7.93.

For `O=C(N1CC2(CC(Cc3nsc(C(F)(F)F)n3)C2)C1)N1CC2(CC(n3cnc(C(F)(F)F)n3)C2)C1` [Example 20, [6-[[5-(trifluoromethyl)-1,2,4-thiadiazol-3-yl]methyl]-2-azaspiro[3.3]heptan-2-yl]-[6-[3-(trifluoromethyl)-1,2,4-triazol-1-yl]-2-azaspiro[3.3]heptan-2-yl]methanone], the pIC50 is 9.07.

The molecule `O=C(N1CC2(CCN(Cc3cc(C(F)(F)F)no3)CC2)C1)N1CC2(CC(n3cnc(C(F)(F)F)n3)C2)C1` [Example 317, [7-[[3-(trifluoromethyl)isoxazol-5-yl]methyl]-2,7-diazaspiro[3.5]nonan-2-yl]-[6-[3-(trifluoromethyl)-1,2,4-triazol-1-yl]-2-azaspiro[3.3]heptan-2-yl]methanone] had a negative-log IC50 (pIC50) of 7.17.

Consider `O=C(N1CC2(CC(n3cnc(C(F)(F)F)n3)C2)C1)N1CC2(CN(Cc3nc(C(F)(F)F)no3)C2)C1` [Example 172, [6-[[3-(trifluoromethyl)-1,2,4-oxadiazol-5-yl]methyl]-2,6-diazaspiro[3.3]heptan-2-yl]-[6-[3-(trifluoromethyl)-1,2,4-triazol-1-yl]-2-azaspiro[3.3]heptan-2-yl]methanone], for which the pIC50 is 7.26.

`Cc1cc(C(F)F)n(CC2CC3(C2)CN(C(=O)N2CC4(CC(n5cnc(C6CC6)n5)C4)C2)C3)n1` [Example 92] showed a pIC50 of 9.68.

For `Cn1nnc(CN2CC3(C2)CN(C(=O)N2CC4(CC(n5cnc(C(F)(F)F)n5)C4)C2)C3)c1C(F)(F)F` [Example 243, [6-[[1-methyl-5-(trifluoromethyl)triazol-4-yl]methyl]-2,6-diazaspiro[3.3]heptan-2-yl]-[6-[3-(trifluoromethyl)-1,2,4-triazol-1-yl]-2-azaspiro[3.3]heptan-2-yl]methanone], the pIC50 is 7.02.

The molecule `O=C(N1CC2(CC(Cc3cnn4c(C(F)(F)F)ccnc34)C2)C1)N1CC2(CC(n3cnc(C4CC4)n3)C2)C1` [Example 359, [6-(3-cyclopropyl-1,2,4-triazol-1-yl)-2-azaspiro[3.3]heptan-2-yl]-[6-[[7-(trifluoromethyl)pyrazolo[1,5-a]pyrimidin-3-yl]methyl]-2-azaspiro[3.3]heptan-2-yl]methanone] showed a pIC50 of 9.89.

Consider `O=C(N1CC2(CC(n3cnc(C4CC4)n3)C2)C1)N1CC2(CN(Cc3ncoc3C(F)(F)F)C2)C1` [Example 221, [6-(3-cyclopropyl-1,2,4-triazol-1-yl)-2-azaspiro[3.3]heptan-2-yl]-[6-[[5-(trifluoromethyl)oxazol-4-yl]methyl]-2,6-diazaspiro[3.3]heptan-2-yl]methanone], for which the pIC50 is 7.49.

For the molecule `O=C(N1CC2(CC(n3cnc(C4CC4)n3)C2)C1)N1CC2(CN(Cc3ncc(C(F)(F)F)s3)C2)C1` [Example 150, [6-(3-cyclopropyl-1,2,4-triazol-1-yl)-2-azaspiro[3.3]heptan-2-yl]-[6-[[5-(trifluoromethyl)thiazol-2-yl]methyl]-2,6-diazaspiro[3.3]heptan-2-yl]methanone], the pIC50 is 8.82.

For the molecule `O=C(N1CC2(CC(Cc3cn[nH]c3C(F)(F)F)C2)C1)N1CC2(CC(n3cnc(C(F)(F)F)n3)C2)C1` [Example 119, [6-[[5-(trifluoromethyl)-1H-pyrazol-4-yl]methyl]-2-azaspiro[3.3]heptan-2-yl]-[6-[3-(trifluoromethyl)-1,2,4-triazol-1-yl]-2-azaspiro[3.3]heptan-2-yl]methanone], the pIC50 is 9.92.
